Experiment [1] concerns peptide-pulsed C1R-A11 cells. Kind of experiment: IFN-gamma ELISA of CTL lines and CTL clones (HLA-A*1101). It is filed as cell-based, human. How it is done:
(§1) CTLs were propagated in culture using methods similar to those disclosed by Riddell et al. (Walter E A et al., N Engl J Med 1995, 333(16): 1038-44; Riddell S R et al., Nat Med 1996, 2(2): 216-23). The CTLs were co-cultured in a total of 25 ml AIM-V medium containing 5% AS (AIM-V/5% AS) and 40 ng/ml anti-CD3 antibody with two types of Mitomycin C-treated human B lymphoblastoid cell lines at 5×10^6 cells/flask. One day after beginning of the culturing, 120 IU/ml IL-2 was added to the culture. On days 5, 8 and 11, a fresh AIM-V/5% AS medium containing 30 IU/ml IL-2 was added to the culture (Tanaka H et al., Br J Cancer 2001, 84(1): 94-9; Umano Y et al., Br J Cancer 2001, 84(8): 1052-7; Uchida N et al., Clin Cancer Res 2004, 10(24): 8577-86; Suda T et al., Cancer Sci 2006, 97(5): 411-9; Watanabe T et al., Cancer Sci 2005, 96(8): 498-506).
Dilution of CTLs was carried out to make 0.3, 1 and 3 cells/well in 96 round-bottomed microtiter plates (Nalge Nunc International). The CTLs were co-cultured with two types of Mitomycin C-treated human B lymphoblastoid cell lines at 1×10^4 cells/well in a total of 150 micro-l/well AIM-V/5% AS medium with 30 ng/ml anti-CD3 antibody and 125 IU/ml IL-2. Ten days later, IL-2 was added to the medium at 50 micro-1/well to reach a final concentration of 125 IU/ml. […]
In general terms: An ELISA detects its analyte on a solid surface through an enzyme-linked reagent.

The subject of experiment [2] is COS7 cells transfected with both full-length URLC10 and the HLA-A*1101 gene. The experiment in a line: Specific CTL activity against target cells expressing URLC10 and HLA-A*1101. The class given is cell-based, African green monkey. The text has this:
A cDNA encoding the open-reading frame of a target gene or HLA-A*1101 was amplified by PCR. The PCR-amplified product was cloned into an expression vector. Either or both of the target gene-expressing vector and the HLA-A*1101-expressing vector were transfected into COS7, which is a cell line negative for the target gene and HLA, using Lipofectamine 2000 (Invitrogen) following the manufacturer's recommended protocol. Two days after transfection, the transfected cells were harvested using versene (Invitrogen), and used as the target cell for CTL activity assay (5×10^4 cells/well).
The CTL clone established against URLC10-A11-10-132 (SEQ ID NO: 13) was investigated for its ability to recognize target cells expressing URLC10 and the HLA-A*1101 molecule. COS7 cells transfected with both full-length URLC10 and the HLA-A*1101 gene (a specific model of target cells expressing URLC10 and the HLA-A*1101 gene) were prepared as the target cell. COS7 cells transfected with either full-length URLC10 or HLA-A*1101 were prepared as the control.

The next experiment relates to peptide-pulsed C1R-A11. The experiment in a line: In vitro CTL induction, IFN-gamma ELISPOT assay (HLA-A*1101). The class given is cell-based, human. The following applies: CTLs induced from HLA-A*1101-positive donors, against peptide-pulsed C1R-A11, compared with control. From the text: (§2) Monocyte-derived dendritic cells (DCs) were used as the antigen-presenting cell to induce a cytotoxic T lymphocyte (CTL) response against peptides presented on human leukocyte antigens (HLAs). As described in the other sections, DCs were generated in vitro (Nakahara S et al., Cancer Res 2003, 63(14): 4112-8). Specifically, peripheral-blood mononuclear cells isolated from healthy volunteers (HLA-A*1101-positive) with the Ficoll-Paque plus solution (Pharmacia) were separated by attaching to plastic tissue culture dishes (Becton Dickinson) and concentrated as a monocyte fraction. The monocyte-concentrated population was cultured in the presence of 1000 IU/ml granulocyte macrophage colony-stimulating factor (R&D System) and 1000 IU/ml interleukin(IL)-4 (R&D System) in an AIM-V medium (Invitrogen) containing 2% heat-inactivated autologous serum (AS). After seven days of culturing, the cytokine-induced DCs were pulsed with 20 micro-g/ml each of the synthesized peptides in an AIM-V medium at 37 degrees C. for three hours in the presence of 3 micro-g/ml beta 2-microglobulin. The generated cells appeared to express on their cell surface DC-associated molecules such as CD80, CD83, CD86 and HLA class II (data not shown). Next, these peptide-pulsed DCs were inactivated by X-ray irradiation (20 Gy), and mixed in a 1:20 ratio with autologous CD8^+ T cells obtained by positive selection using the CD8 Positive Isolation Kit (Dynal). These culture products were seeded in a 48-well plate (Corning). Each well was made to contain 1.5×10^4 peptide-pulsed DCs, 3×10^5 CD8^+ T cells and 10 ng/ml IL-7 (R&D System) in 0.5 ml of the AIM-V/2% AS medium. Three days later, these culture products were added with a final concentration of 20 IU/ml IL-2 (CHIRON). On day 7 and day 14, T cells were further stimulated with peptide-pulsed autologous DCs. The DCs were prepared every time by the same method as above. On day 21, after the third peptide stimulation, CTLs were examined against the peptide-pulsed C1R-A11 by a human interferon (IFN)-gamma enzyme-linked immunospot (ELISPOT) assay (Tanaka H et al., Br J Cancer 2001, 84(1): 94-9; Umano Y et al., Br J Cancer 2001, 84(8): 1052-7; Uchida N et al., Clin Cancer Res 2004, 10(24): 8577-86; Suda T et al., Cancer Sci 2006, 97(5): 411-9; Watanabe T et al., Cancer Sci 2005, 96(8): 498-506).
To examine specific CTL activity, an IFN-gamma ELISPOT assay and an IFN-gamma enzyme-linked immunosorbent assay (ELISA) were performed. Specifically, peptide-pulsed C1R-A11 (1×10^4 cells/well) was prepared as the stimulator cell. The induced CTLs, i.e., CTL lines and CTL clones, were used as the responder cell. The IFN-gamma ELISPOT assay and IFN-gamma ELISA were performed according to the manufacturer's manual.

The test system of experiment [3] is COS7 cells transfected with both full-length URLC10 and the HLA-A*0301 gene. The experiment in a line: Specific CTL activity against target cells expressing URLC10 and HLA-A*0301. The class given is cell-based, African green monkey. The text has this: A cDNA encoding the open-reading frame of a target gene or HLA-A*0301 was amplified by PCR. The PCR-amplified product was cloned into an expression vector. Either or both of the target gene-expressing vector and the HLA-A*0301-expressing vector were transfected into […], which is a cell line negative for the target gene and HLA, using Lipofectamine 2000 (Invitrogen) following the manufacturer's recommended protocol. Two days after transfection, the transfected cells were harvested using versene (Invitrogen), and used as the target cell for CTL activity assay (5×10^4 cells/well).
The CTL clone established against URLC10-A03-11-131 (SEQ ID NO: 31) was investigated for its ability to recognize target cells expressing URLC10 and the HLA-A*0301 molecule. COS7 cells transfected with both full-length URLC10 and the HLA-A*0301 gene (a specific model of target cells expressing URLC10 and the HLA-A*0301 gene) were prepared as the target cell. COS7 cells transfected with either full-length URLC10 or HLA-A*0301 were prepared as the control.

Experiment [4] deals with C1R-A03 cells pulsed with the respective peptide. Kind of experiment: IFN-gamma ELISA of CTL lines and CTL clones (HLA-A*0301). It is filed as cell-based, human. As to the method:
as §1
Dilution of CTLs was carried out to make 1 and 10 cells/well in 96 round-bottomed microtiter plates (Nalge Nunc International). The CTLs were co-cultured with two types of Mitomycin C-treated human B lymphoblastoid cell lines at 1×10^4 cells/well in a total of 150 micro-l/well 5% AS-containing AIM-V (AIM-V/5% AS) medium with 30 ng/ml anti-CD3 antibody and 125 IU/ml IL-2. Ten days later, IL-2 was added to the medium at 50 micro-l/well to reach a final concentration of 125 IU/ml. On day 14, the CTL activity was tested, and the CTL clones were propagated using the same method as described above (Uchida N et al., Clin Cancer Res 2004, 10(24): 8577-86; Suda T et al., Cancer Sci 2006, 97(5): 411-9; Watanabe T et al., Cancer Sci 2005, 96(8): 498-506).
(§3) To examine specific CTL activity, an IFN-gamma ELISPOT assay and an IFN-gamma enzyme-linked immunosorbent assay (ELISA) were performed. Specifically, peptide-pulsed C1R-A03 (1×10^4 cells/well) was prepared as the stimulator cell. The induced CTLs, i.e., CTL lines and CTL clones, were used as the responder cell. The IFN-gamma ELISPOT assay and IFN-gamma ELISA were performed according to the manufacturer's manual.

For another experiment, the system named is peptide-pulsed C1R-A03. Kind of experiment: In vitro CTL induction, IFN-gamma ELISPOT assay (HLA-A*0301). The class given is cell-based, human. The following applies: CTLs induced from HLA-A*0301-positive donors, against peptide-pulsed C1R-A03, compared with control.
From the text: as §2, with “(HLA-A*0301-positive)” for “(HLA-A*1101-positive)”, “C1R-A03” for “C1R-A11”
as §3

Where [5] appears, read: CTL line against peptide-pulsed versus non-pulsed target cells.

“IFPRFFMVAK (a peptide derived from URLC10) [SEQ ID NO 13, URLC10-derived 10mer peptide, start position 132]”: in experiment [1] (CTL clone by limiting dilution, against peptide-pulsed C1R-A11 cells), the “IFN-gamma production of CTL clone” value is reported as “Potent IFN-gamma production”. The “IFN-gamma production of CTL line” value in experiment [1] (setting [5]) is “potent IFN-gamma production”. The “CTL activity of peptide-stimulated CTL clone against control cells” value in experiment [2] (COS7 cells transfected with either full-length URLC10 or HLA-A*1101) is reported as “significant specific CTL activity was not detected”. For the same sequence, the “CTL activity of peptide-stimulated CTL clone” value in experiment [2] (against COS7 cells expressing both URLC10 and HLA-A*1101) is listed as “potent CTL activity”. The “peptide-specific CTL activity (IFN-gamma production)” value in the experiment on peptide-pulsed C1R-A11 is “potent IFN-gamma production”.
Regarding “KIFPRFFMVAK (a peptide derived from URLC10) [SEQ ID NO 31, URLC10-derived 11mer peptide, start position 131]”, in experiment [3] (COS7 cells transfected with either full-length URLC10 or HLA-A*0301), the “CTL activity of peptide-stimulated CTL clone against control cells” value is given as “significant specific CTL activity was not detected”. Also, the “CTL activity of peptide-stimulated CTL clone” value in experiment [3] (against COS7 cells expressing both URLC10 and HLA-A*0301) is given as “potent CTL activity”. Besides, the “IFN-gamma production of CTL clone” value in experiment [4] (CTL clone by limiting dilution, against peptide-pulsed C1R-A03 cells) is “Potent IFN-gamma production”. Further, the “IFN-gamma production of CTL line” value in experiment [4] (setting [5]) is “potent IFN-gamma production”. For the same sequence, the “peptide-specific CTL activity (IFN-gamma production)” value with peptide-pulsed C1R-A03 is reported as “potent IFN-gamma production”.

The record behind these values is patent publication US10576097B2, “URLC10-derived peptide and vaccine containing same” (ONCOTHERAPY SCIENCE, INC., priority 2014, dated 2020).
